One assay concerns the target T1, mGluR5 (Rattus norvegicus, UniProt P31424).
T1 construct: positive allosteric modulators of mGluR5 receptors in native preparations; endogenous in cells; host or cells: primary cortical astrocytes from Sprague-Dawley rat embryos (E16-19)
The assay is described as follows: mGluR5 binding assay ([3H]-MPEP, rat brain membranes). The following applies: competition with 3 nM [3H]-MPEP, rat cortical membranes, 1 h at 4° C. The text has this: Activity of compounds of the invention was examined following a radioligand binding technique using whole rat brain and tritiated 2-methyl-6-(phenylethynyl)-pyridine ([^3H]-MPEP) as a ligand following similar methods than those described in Gasparini et al. (2002) Bioorg. Med. Chem. Lett. 12:407-409 and in Anderson et al. (2002) J. Pharmacol. Exp. Ther. 303 (3) 1044-1051.
Cortices were dissected out from brains of 200-300 g Sprague-Dawley rats (Charles River Laboratories, L'Arbresle, France). Tissues were homogenized in 10 volumes (vol/wt) of ice-cold 50 mM Hepes-NaOH (pH 7.4) using a Polytron disrupter (Kinematica AG, Luzern, Switzerland) and centrifuged for 30 min at 40,000 g. (4° C.). […] Protein concentration was determined by the Bradford method (Bio-Rad protein assay, Reinach, Switzerland) with bovine serum albumin as standard.
Membranes were thawed and resuspended in binding buffer containing 20 mM HEPES-NaOH, 3 mM MgCl2, 3 mM CaCl2, 100 mM NaCl, pH 7.4. […] Radioactivity was determined by liquid scintillation spectrometry using a 96-well plate reader (TopCount, Perkin-Elmer, Downers Grove, USA).
The inhibition curves were generated using the Prism GraphPad program (Graph Pad Software Inc, San Diego, USA). […] The mean of IC50 obtained from at least three independent experiments of selected molecules performed in duplicate were calculated.

For a further assay, the target named is T2, rat mGluR5 (Rattus norvegicus, UniProt P31424).
T2 construct: expressed in transfected cells
The experiment in a line: mGluR5 assay on HEK-expressing rat mGluR5 (fluorescent cell based Ca2+ mobilization). The following applies: HEK-293 cells stably expressing rat mGluR5, no co-addition of glutamate; mean of at least three independent experiments in duplicate; read-out: Ca2+ Flux (mean EC50). The protocol:
Positive functional expression of HEK-293 cells stably expressing rat mGluR5 receptor was determined by measuring intracellular Ca^2+ changes using a Fluorometric Imaging Plate Reader (FLIPR, Molecular Devices, Sunnyvale, Calif.) in response to glutamate or selective known mGluR5 agonists and antagonists. Rat mGluR5RT-PCR products in HEK-293 cells were sequenced and found 100% identical to rat mGluR5Genbank reference sequence (NM_017012). HEK-293 cells expressing rmGluR5 were maintained in media containing DMEM, dialyzed Fetal Bovine Serum (10%), Glutamax™ (2 mM), Penicillin (100 units/ml), Streptomycin (100 μg/ml), Geneticin (100 μg/ml) and Hygromycin-B (40 μg/ml) at 37° C./5% CO2.
After one day of incubation, cells were washed with assay buffer containing: 142 mM NaCl, 6 mM KCl, 1 mM […], 1 mM CaCl2, 20 mM HEPES, 1 g/L glucose, 0.125 mM sulfinpyrazone, pH 7.4. After 60 min of loading with 4 uM Fluo-4 (TefLabs, Austin, Tex.), the cells were washed three times with 50 μl of PBS Buffer and resuspended in 45 μl of assay Buffer. The plates were then transferred to a Fluorometric Imaging Plate Reader (FLIPR, Molecular Devices, Sunnyvale, Calif.) for the assessment of intracellular calcium flux. After monitoring the baseline fluorescence for 10 seconds, increasing concentrations of representative compound (from 0.01 to 60 μM) of the present invention diluted in Assay Buffer (15 μl of 4× dilutions) was added to the cell. The final DMSO concentration in the assay was 0.3%. In each experiment, fluorescence was then monitored as a function of time for 3 minutes and the data analyzed using Microsoft Excel and GraphPad Prism. Each data point was also measured two times.
Under these experimental conditions, this HEK-rat mGluR5 cell line is able to directly detect positive allosteric modulators without the need of co-addition of glutamate or mGluR5 agonist.
The concentration-response curves of representative compounds of the present invention were generated using the Prism GraphPad software (Graph Pad Inc, San Diego, USA). The curves were fitted to a four-parameter logistic equation:
(Y=Bottom+(Top-Bottom)/(1+10̂((Log EC50−X)*Hill Slope)
allowing determination of EC50 values.
The Table 1 below represents the mean EC50 obtained from at least three independent experiments of selected molecules performed in duplicate.

pEC50, pIC50: −log10 of the molar value. Where only a bound is given, the exact number is not on record here.

T1 sequence (P31424 21-1203): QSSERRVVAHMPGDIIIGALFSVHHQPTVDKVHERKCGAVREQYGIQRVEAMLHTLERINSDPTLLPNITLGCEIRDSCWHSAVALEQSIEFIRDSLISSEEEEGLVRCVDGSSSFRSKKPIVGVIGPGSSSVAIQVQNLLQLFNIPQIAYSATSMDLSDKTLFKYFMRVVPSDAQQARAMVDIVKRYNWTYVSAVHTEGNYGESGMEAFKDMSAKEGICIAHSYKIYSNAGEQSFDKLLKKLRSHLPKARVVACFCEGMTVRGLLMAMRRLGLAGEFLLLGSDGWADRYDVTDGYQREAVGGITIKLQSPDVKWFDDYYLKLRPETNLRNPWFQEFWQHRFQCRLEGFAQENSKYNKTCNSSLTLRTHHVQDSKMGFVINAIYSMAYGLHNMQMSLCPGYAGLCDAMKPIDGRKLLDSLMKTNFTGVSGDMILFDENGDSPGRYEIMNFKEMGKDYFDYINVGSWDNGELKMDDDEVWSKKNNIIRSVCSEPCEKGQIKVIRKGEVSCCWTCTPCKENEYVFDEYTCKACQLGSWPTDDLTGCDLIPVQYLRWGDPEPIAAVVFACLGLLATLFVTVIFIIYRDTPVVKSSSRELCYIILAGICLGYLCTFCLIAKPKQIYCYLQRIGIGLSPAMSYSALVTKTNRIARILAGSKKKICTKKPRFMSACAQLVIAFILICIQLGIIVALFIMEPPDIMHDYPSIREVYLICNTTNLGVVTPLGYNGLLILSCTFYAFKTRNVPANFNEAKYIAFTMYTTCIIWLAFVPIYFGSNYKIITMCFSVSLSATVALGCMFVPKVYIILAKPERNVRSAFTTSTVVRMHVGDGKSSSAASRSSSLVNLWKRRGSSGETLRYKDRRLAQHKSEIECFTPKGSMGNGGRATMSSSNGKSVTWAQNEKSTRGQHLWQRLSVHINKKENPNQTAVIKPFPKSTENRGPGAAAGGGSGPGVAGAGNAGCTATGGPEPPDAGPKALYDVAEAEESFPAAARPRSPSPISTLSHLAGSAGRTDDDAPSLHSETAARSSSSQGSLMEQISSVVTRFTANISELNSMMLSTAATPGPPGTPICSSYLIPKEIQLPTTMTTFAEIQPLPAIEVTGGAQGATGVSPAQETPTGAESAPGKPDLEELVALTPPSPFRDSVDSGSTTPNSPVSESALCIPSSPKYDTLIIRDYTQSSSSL
T2 sequence (P31424 21-1171 isoform P31424-2 limits assumed): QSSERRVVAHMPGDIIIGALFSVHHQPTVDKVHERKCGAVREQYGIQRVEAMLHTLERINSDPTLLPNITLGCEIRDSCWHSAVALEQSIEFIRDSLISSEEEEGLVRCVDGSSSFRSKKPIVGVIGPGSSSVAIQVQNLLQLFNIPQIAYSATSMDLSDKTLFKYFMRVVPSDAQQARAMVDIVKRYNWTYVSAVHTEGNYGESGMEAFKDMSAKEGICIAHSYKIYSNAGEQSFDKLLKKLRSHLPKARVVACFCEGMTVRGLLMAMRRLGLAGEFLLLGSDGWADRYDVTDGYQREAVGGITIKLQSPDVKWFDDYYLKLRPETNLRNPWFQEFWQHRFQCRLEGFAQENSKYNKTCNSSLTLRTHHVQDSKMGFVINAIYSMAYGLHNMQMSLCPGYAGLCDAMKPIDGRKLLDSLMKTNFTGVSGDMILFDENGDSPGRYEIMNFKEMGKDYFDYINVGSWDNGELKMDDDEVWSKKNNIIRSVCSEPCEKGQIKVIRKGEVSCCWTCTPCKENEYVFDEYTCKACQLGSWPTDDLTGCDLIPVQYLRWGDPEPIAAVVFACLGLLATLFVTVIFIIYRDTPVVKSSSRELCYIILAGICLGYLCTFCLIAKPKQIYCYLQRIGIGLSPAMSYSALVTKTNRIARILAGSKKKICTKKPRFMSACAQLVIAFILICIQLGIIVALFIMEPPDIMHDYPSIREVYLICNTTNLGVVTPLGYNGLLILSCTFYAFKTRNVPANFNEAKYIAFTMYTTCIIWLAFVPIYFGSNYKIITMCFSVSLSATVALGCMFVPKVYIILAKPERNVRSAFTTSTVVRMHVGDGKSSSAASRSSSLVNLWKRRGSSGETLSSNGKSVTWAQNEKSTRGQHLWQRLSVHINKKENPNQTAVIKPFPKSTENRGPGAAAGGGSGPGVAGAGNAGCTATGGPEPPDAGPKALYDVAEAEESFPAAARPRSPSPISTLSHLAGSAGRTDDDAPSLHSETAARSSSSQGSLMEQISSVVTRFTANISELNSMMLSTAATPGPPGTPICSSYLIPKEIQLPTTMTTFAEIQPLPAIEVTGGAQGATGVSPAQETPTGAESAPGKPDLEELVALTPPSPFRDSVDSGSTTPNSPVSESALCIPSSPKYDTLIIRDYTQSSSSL

Turning to `O=C(c1ccc(F)cc1)N1CCC[C@H](c2nc(-c3cc(F)c[nH]3)co2)C1` [Example 1, (4-Fluoro-phenyl)-{(S)-3-[4-(4-fluoro-1H-pyrrol-2-yl)-oxazol-2-yl]-piperidin-1-yl}-methanone], the pIC50 on mGluR5 was more than 5.00. Also, on rat mGluR5, the pEC50 is more than 6.00.
